# Measured values reported in patent publication US11229665B2, “Compound of glycosaminoglycan and its fabrication method as well as application” (Holy Stone Healthcare Co., Ltd., priority 2013, dated 2022).
# Key:
# [1] = test system: HT29 cells; test: In vitro cytotoxicity (MTT cell viability); type: cell-based, human; settings: 24 hours
# Procedure: HT29 cells were seeded at low density of 1×10^4 cells per well in 96 well-plates in medium containing high glucose DMEM, 10% FBS, 1% sodium pyruvate, 1% Penicillin, Streptomycin, and Neomycin.
# (§1) Drug effect on cellular viability was evaluated using an assay based on the cleavage of the yellow dye 3-(4, 5-dimethyl-2-thiazolyl)-2, 5-diphenyl-2H-tetrazolium bromide (MTT) to purple formazan crystals by dehydrogenase activity in mitochondria.
# (§2) After drug treatment for 24 hours, medium was removed and cell layers were rinsed with medium following MTT diluted (0.5 mg/ml) in medium for 4 hours at 37° C. incubator (5% CO2).
# (§3) The cells were then added with 100 μl/well DMSO and the optical density of the cellular homogenate was measured at 570 nm using ELISA reader.
# (§4) The fraction of live cells was calculated by dividing the mean optical density obtained from treated cells by the mean optical density from untreated control cells.
# (§5) After drug treatment for 24 hr, medium was removed and cell layers were rinsed with medium following MTT diluted (0.5 mg/ml) in medium for 4 hours at 37° C. incubator (5% CO2).
# Drug effect on cellular viability was evaluated using an assay based on the cleavage of the yellow dye 3-(4,5-dimethyl-2-thiazolyl)-2,5-diphenyl-2H-tetrazolium bromide (MTT) to purple formazan crystals by dehydrogenase activity in mitochondria.
# [2] = test system: HCT15 cells; test: In vitro cytotoxicity (MTT cell viability); type: cell-based, human; settings: 24 hours
# Procedure: HCT15 cells were seeded at low density of 1×10^4 cells per well in 96 well-plates in medium containing DMEM/F12, 10% FBS, 1% sodium pyruvate, 1% Penicillin, Streptomycin, and Neomycin.
# as §1, §2, §3, §4, §5
# [3] = Body weight in xenograft nude mice model; type: in vivo, BALB/c athymic (nu+/nu+) mice; settings: HT29 xenograft mice; 1.5 mg/kg Nimesulide or equivalent, tail vein, within 24 days
# Procedure: 3. Tumor sizes and body weight were measured every 3 or 5 days for the duration of the experiment.
# 6. Mice were administered via tail vein injections at doses of Nimesulide (1.5 mg/kg), HA-Nimesulide (equivalent to 1.5 mg/kg of Nimesulide) or PBS respectively with an interval of 48 or 72 hours.
# 7. The tumor size and change in body weight of each mouse were recorded.
# [4] = Adhesion of fluorescent HA (HA-f) in colon tissue (IVIS image system); design: species or system SD-rat (Sprague-Dawley Rat); settings: 0.5% HA-f, 2 hours
# Procedure: 1. 0.25 g high molecule weight sodium hyaluronate powder (HHA; Mw: 2 MDa; Freda) and 0.25 g low molecule weight sodium hyaluronate powder (LHA; Mw: 0.35 MDa; Freda) were added into 50 ml PBS buffer (Phosphate buffered saline) respectively to form 0.5% solution, and then stirred for 6 hours until the powder was totally dissolved. 0.25 g medium molecule weight sodium hyaluronate powder (MHA; Mw: 1 MDa; Freda) was added into 50 ml PBS buffer, and then stirred for 6 hours until the powder was totally dissolved and ready for use in the following steps.
# 2. Fluorescent HA (HA-f) was prepared by (1) 0.39 g MES free acid (2-(N-morpholino) ethanesulfonic acid, Calbiochem) and was dissolved in 100 ml dd water. (2) Solution A: 65 mg fluroresceinamine powder, (isomer I, Fluka) was dissolved in 9 ml 95% EtOH solution and then stirred for 10 minutes under a condition that light was prohibited. […] (8) The product after reaction was poured into a dialysis tubing (MW: 12000˜14000) in 5 L dd water as a dialysis solution and then stirred for 5 days at 4° C. under a condition that light was prohibited with dialysis solution being changed every 12 hours until the dialysis solution had no fluorescence. […]
# 7. All values are calculated as means of n observations. The histological index was analyzed by Student's t-test.
# [5] = Lenalidomide series, 3.125-400 μM
# [6] = Nimesulide series, 3.125-200 μM
compound,measurement,setting,value
Nc1cccc2c1CN(C1CCC(=O)NC1=O)C2=O (stereo not shown) [Lenalidomide],"cytotoxicity effect (cell viability, MTT)",[1]; [5],almost the same in both cell lines
same,"cytotoxicity effect (cell viability, MTT)",[2]; [5],almost the same in both cell lines
"CS(=O)(=O)Nc1ccc([N+](=O)[O-])cc1Oc1ccccc1 [NiNO2, Nimesulide]","cytotoxicity effect (cell viability, MTT)",[1]; [6],generally better than modified production
same,"cytotoxicity effect (cell viability, MTT)",[2]; [6],generally better than modified production
same,average body weight,[3],almost the same
sodium hyaluronate [1 MDa HA],fluorescent index of adhesion,[4]; normal or injured colon tissues,higher than 2 MDa HA
sodium hyaluronate [350 KDa HA],fluorescent index of adhesion,"[4]; injured colon tissues, normal colon tissue defined as 1",obviously higher than HAs of the other two average molecular weights
